# Source: publication PMC7332481, “Ecotoxicity screening evaluation of selected pharmaceuticals and their transformation products towards various organisms” (Environmental Science and Pollution Research International, 2020)
# Where two headings read alike, the source gives them in different places.
# Assays:
# [1] = system: Lemna minor; assay: L. minor growth inhibition test; settings: for EC50 L. minor (with confidence interval 2.5–97.5%): growth rate inhibition by frond area, 7 days; for EC50: 168 h, read-out: EC50 L. minor (with confidence interval 2.5–97.5%), growth rate inhibition by frond area, 7 days; for toxicity to L. minor: highest tested concentration (100 mg L^−1)
# Description: (§1) All tests were carried out in accordance with the OECD or ISO guidelines. In general the experimental part was divided into three main steps: (i) determination of the toxicity of the native forms of pharmaceuticals (their racemic mixtures), (ii) toxicity evaluation of the selected TPs of these pharmaceuticals, and (iii) preliminary toxicity assessment of the enantiomers of selected pharmaceuticals. For each assay, range-finding tests were conducted, in order to determine the range of concentrations for the definitive tests. The main tests were repeated three times in at least two parallel replicates, with a minimum of five concentrations for native forms of the selected pharmaceuticals (including their enantiomers). The exact number of replicates and concentrations tested was included in the description of each test. […] However, TPs were tested in a different manner; first, the tests were carried out at the limit concentration of 100 mg L^−1. […] Such approach was applied in order to observe the relative toxicity of the selected TP and its native form.
# (§2) Dose-response curves were fitted using a linear logistic or logistic model (the model giving the best fit was chosen) (https://cran.r-project.org/web/packages/drfit/drfit.pdf). The mathematic formulas applied for this purpose are presented and described in the Supplementary Material. The EC50 values were given since log EC50 is a model parameter in the logistic as well as in linear logistic model.
# One week before the assay, the inoculum cultures were prepared; eight healthy plants were placed into a new portion of the medium. Two days before the test, the plants were transferred to a fresh medium, in order to supplement nutrients and to eliminate plant metabolites. The experiments were performed in six-well plates under the conditions described above. The pH value of the Steinberg medium and all solutions was 5.5 (± 0.5). Every test included six different concentrations of compound and six controls in three replicates. The test started with one plant consisting of three fronds and the measured endpoint was the inhibition of growth rate determined by comparing the frond area (mm^2) for the treated plants and untreated controls.
# [2] = system: Raphidocelis subcapitata; assay: R. subcapitata reproduction (growth) inhibition test; format: cell-based; settings: for EC50 R. subcapitata (with confidence interval 2.5–97.5%) / EC50: growth inhibition by cell counts, 72 h; for EC50: read-out: EC50 R. subcapitata (with confidence interval 2.5–97.5%)
# Description: as §1, §2
# Test organisms were provided from Algal Culture Collection (Universität Göttingen, Germany). […] The light-dark cycle was different from the OECD guidelines, and it was introduced to imitate natural growth conditions. In order to ensure that the algae are in the exponential growth phase when used to inoculate the test solutions, the stock culture was diluted three times a week. The test was carried out in 25 mL suspension cell culture flasks (Nunc) (working volume 10 mL). All operations were performed under sterile conditions. The initial cell concentration was 5 × 10^4 cells mL^−1. Eight different concentrations of every compound in three replicates and a minimum of six controls were used in each test. […] The test flasks were incubated on a shaker with a speed of approx. 75 rpm at the temperature and light conditions described above. Growth inhibition was calculated using the cell counts of the treated samples in relation to the untreated controls after 72 h of exposure. The cells were counted with the use of CASY TT Cell counter & analyzer.
# [3] = system: Daphnia magna; assay: D. magna acute immobilization test; format: in vivo; settings: for EC50 D. magna (with confidence interval 2.5–97.5%) / EC50: immobilization, 48 h; for mortality at 50 µg/mL: concentration 50 mg L^−1; for mortality at 100 µg/mL: concentration 100 mg L^−1; for EC50: read-out: EC50 D. magna (with confidence interval 2.5–97.5%)
# Description: as §1, §2
# Five pre-fed test organisms were incubated with the studied compounds diluted in 10 mL of test media in glass test vessels at 20 °C (± 1 °C) in darkness for 48 h. Each test consisted of a control and five different concentrations of the studied compound in four parallel replicates. In order to achieve a full dose-response relationship, the concentration series covered the range of 0–100% immobilization. The number of immobilized or dead organisms was checked after 24 and 48 h. The negative effect of exposure to the tested compounds was expressed by the number of immobilized organisms compared to the controls.
# [4] = system: Vibrio fischeri; assay: microbe, parasite or virus in culture; format: cell-based; settings: for inhibition at 10 µg/mL: concentration 10 mg L^−1
# Description: (§3) Stock solutions and dilutions were prepared in 2% NaCl in 0.02 M phosphate buffer, pH 7. The freeze-dried bacteria were rehydrated prior to testing in a reactivation solution. Culture suspensions and diluted samples were pre-incubated at 15 °C for 15 min. After the initial luminescence was measured, 0.5 mL of the culture suspension was mixed with the same volume of a diluted sample. The final bioluminescence was measured after 30 min. Incubation was kept at 15 °C (LUMIStox 300 meter, Dr. Lange GmbH, Berlin, Germany). The relative toxicity of the samples was expressed as a percentage of luminescence inhibition compared to the controls.
# as §3, with “m,” for “meter,”
# [5] = system: Arthrobacter globiformis; assay: A. globiformis dehydrogenase inhibition test (version without soil); settings: for EC50: read-out: EC50 A. globiformis
# Description: as §1
# The test strain was obtained from the German Collection of Microorganisms (DSMZ). A version of the test without soil was performed. Bacteria was grown in a sterile medium containing 10 g L^−1 peptone from casein, 5 g L^−1 yeast extract, 5 g L^−1 glucose, and 5 g L^−1 NaCl. For the test, the medium was diluted in a ratio of 1:3 in water. The inoculum was the bacteria in a log-growth phase. Cell density was adjusted to 1 × 10^8 cells mL^−1, which corresponds to an optical density (OD600nm) of 0.4. The test was performed in 24-well microplates. Each well contained 1 mL of solution of the tested compound in water and 1 mL of bacterial inoculum. Next, the plates were incubated for 2 h at 30 °C on a horizontal shaker with a speed of 100 rpm. To each well, a portion of 0.6 mL of the redox active dye resazurine (45 mg L^−1) dissolved in buffer was added. The microplates were further incubated for 1 h (30 °C, 100 rpm). To stop the reduction process, the plates were centrifuged at 3600g for 10 min. Aliquots (300 μl) of supernatant from each well were immediately transferred to the wells of a 96-well microplate in triplicates. Finally, the dehydrogenase activity was determined by measuring the formation of resorufin from resazurine using a fluorimeter ([…]). Dehydrogenase inhibition was calculated using Eq. 1.
# where FBTS is the measured fluorescence of the blank (medium) with the tested substance, FTS is the measured fluorescence of the sample, FBNC is the measured fluorescence of the blank, and FNC is the measured fluorescence of the negative control (with bacteria).
# [6] = luminescence inhibition, 30 min, 15 °C
# [7] = Lemna minor, read-out: Growth inhibition of L. minor
# [8] = Raphidocelis subcapitata, concentration 100 mg L^−1, read-out: Growth inhibition of R. subcapitata
# [9] = Aliivibrio fischeri, read-out: Luminescence inhibition
# [10] = Aliivibrio fischeri, concentration 100 mg L^−1, read-out: Luminescence inhibition
# [11] = Raphidocelis subcapitata, read-out: Growth inhibition of R. subcapitata
# [12] = Daphnia magna, read-out: Immobilization
smiles,measurement,setting,value
"CC(C)Cc1ccc([C@@H](C)C(=O)O)cc1 (single isomer, unassigned) [IBU Isomer R, R-ibuprofen]",EC50 L. minor (with confidence interval 2.5–97.5%),[1],12.36 (10.80–14.07) mg L^−1
same,EC50 R. subcapitata (with confidence interval 2.5–97.5%),[2],11.65 (10.21–13.26) mg L^−1
same,EC50 D. magna (with confidence interval 2.5–97.5%),[3],65.83 (59.54–72.54) mg L^−1
"COc1ccc2cc([C@@H](C)C(=O)O)ccc2c1 (single isomer, unassigned) [NAP Isomer R, R-naproxen]",EC50 L. minor (with confidence interval 2.5–97.5%),[1],22.37 (20.76–24.04) mg L^−1
same,EC50 R. subcapitata (with confidence interval 2.5–97.5%),[2],21.08 (19.64–22.59) mg L^−1
same,EC50 D. magna (with confidence interval 2.5–97.5%),[3],97.35 (91.90–104.95) mg L^−1
same,EC50 V. fischeri (with confidence interval 2.5–97.5%),[4]; [6],7.53 (7.11–7.99) mg L^−1
"COc1ccc2cc([C@H](C)C(=O)O)ccc2c1 (single isomer, unassigned) [NAP Isomer S, S-naproxen]",EC50 L. minor (with confidence interval 2.5–97.5%),[1],29.14 (27.19–31.40) mg L^−1
same,EC50 R. subcapitata (with confidence interval 2.5–97.5%),[2],27.80 (25.67–30.05) mg L^−1
same,EC50 D. magna (with confidence interval 2.5–97.5%),[3],68.76 (54.64–90.98) mg L^−1
same,EC50 V. fischeri (with confidence interval 2.5–97.5%),[4]; [6],20.60 (19.50–21.75) mg L^−1
"CC(C(=O)O)c1ccc(CC(C)(C)O)cc1 (centres unmarked) [2-OH-IBU, 2-Hydroxyibuprofen]",inhibition at 15 µg/mL,[1]; [7],11%
same,inhibition at 100 µg/mL,[2]; [8],16%
same,mortality at 50 µg/mL,[3]; Daphnia magna,0%
same,inhibition at 10 µg/mL,[4]; [9],4%
"O=C(O)Cc1ccccc1Nc1c(Cl)cc(O)cc1Cl [4-OH-DIC, 4☒Hydroxydiclofenac]",inhibition at 15 µg/mL,[1]; [7],0%
same,inhibition at 50 µg/mL,"[2]; Raphidocelis subcapitata, concentration 50 mg L^−1",45%
same,mortality at 60 µg/mL,"[3]; Daphnia magna, concentration 60 mg L^−1",8%
same,inhibition at 10 µg/mL,[4]; [9],38%
same,inhibition at 100 µg/mL,[5]; read-out: inhibition of bacterial growth (A. globiformis),14%
"NC(=O)N1c2ccccc2CC(O)c2ccccc21 (centres unmarked) [10-OH-CRB, 10,11-Dihydro-10-hydroxycarbamazepine]",inhibition at 50 µg/mL,[1]; [7],11%
same,inhibition at 100 µg/mL,[2]; [8],15%
"CC(Cc1ccc(C(C)C(=O)O)cc1)C(=O)O (centres unmarked) [CBX-IBU, Carboxyibuprofen]",inhibition at 15 µg/mL,[1]; [7],6%
same,inhibition at 100 µg/mL,[2]; [8],14%
same,mortality at 50 µg/mL,[3]; Daphnia magna,8%
same,inhibition at 10 µg/mL,[4]; [9],2%
"NC(=O)N1c2ccccc2C=Cc2ccccc21 [CRB, Carbamazepine]",EC50,[1]; Lemna minor,50.2 µg/mL
same,inhibition at 50 µg/mL,[1]; [7],49%
same,EC50,[2]; Raphidocelis subcapitata,> 100 µg/mL
same,inhibition at 100 µg/mL,[2]; [8],49%
same,Growth inhibition of R. subcapitata,[2]; concentration 100 mg L^−1,48%
same,mortality at 100 µg/mL,[3]; Daphnia magna,24%
same,EC50,[3]; Daphnia magna,> 100 µg/mL
same,EC50,"[4]; Aliivibrio fischeri, 0.5 h, luminescence inhibition, 30 min, 15 °C, read-out: EC50 V. fischeri (with confidence interval 2.5–97.5%)",> 100 µg/mL
same,inhibition at 100 µg/mL,[4]; [10],42%
same,EC50,[5],> 100 µg/mL
"NC(=O)N1c2ccccc2C2OC2c2ccccc21 (centres unmarked) [CRB-Ep, Carbamazepine 10,11-epoxide]",inhibition at 50 µg/mL,[1]; [7],32%
same,inhibition at 100 µg/mL,[2]; [8],37%
same,mortality at 100 µg/mL,[3]; Daphnia magna,0%
same,inhibition at 100 µg/mL,[4]; [10],30%
"CC(C)Cc1ccc([C@H](C)C(=O)O)cc1 [IBU Isomer S, S-ibuprofen]",EC50,[1]; Lemna minor,26.3 µg/mL
same,EC50,[2]; Raphidocelis subcapitata,26.6 µg/mL
same,EC50,[3]; Daphnia magna,63.1 µg/mL
"CC(C)Cc1ccc(C(C)C(=O)O)cc1 (centres unmarked) [IBU, Ibuprofen]",EC50,[1]; Lemna minor,13.2 µg/mL
same,inhibition at 15 µg/mL,[1]; [7],54%
same,EC50,[2]; Raphidocelis subcapitata,93.3 µg/mL
same,inhibition at 100 µg/mL,[2]; [8],52%
same,mortality at 50 µg/mL,[3]; Daphnia magna,52%
same,EC50,[3]; Daphnia magna,50.1 µg/mL
same,inhibition at 10 µg/mL,[4]; [9],42%
same,EC50,[5],> 100 µg/mL
"CC(C)NCC(O)COc1ccc(CC(=O)O)cc1 (centres unmarked) [MET-ACID, Metoprolol acid]",inhibition at 100 µg/mL,[1]; [7],5%
same,toxicity to L. minor,[1],non-toxic
same,inhibition at 100 µg/mL,[2]; [8],0%
same,mortality at 100 µg/mL,[3]; Daphnia magna,0%
same,inhibition at 100 µg/mL,[4]; [10],0%
"CC(=O)Nc1ccc(S(=O)(=O)Nc2cc(C)on2)cc1 [N4-SMZ, N^4-Acetylsulfamethoxazole]",inhibition at 3 µg/mL,[1]; [7],17%
same,inhibition at 5 µg/mL,[2]; [11],27%
same,mortality at 40 µg/mL,[3]; [12],0%
same,toxic effect / risk to V. fischeri,[4],negligible
same,inhibition at 50 µg/mL,[4]; [9],8%
"CC(C(=O)O)c1ccc2cc(O)ccc2c1 (centres unmarked) [O-DES-NAP, O-Desmethylnaproxen]",mortality at 70 µg/mL,"[3]; Daphnia magna, concentration 70 mg L^−1, read-out: Immobilization",0%
same,inhibition at 25 µg/mL,"[4]; Aliivibrio fischeri, concentration 25 mg L^−1, read-out: Luminescence inhibition",20%
"CN(C)CC1CCCCC1(O)c1cccc(O)c1 (centres unmarked) [O-DES-TRA, O-Desmethyltramadol]",inhibition at 100 µg/mL,[1]; [7],0%
same,toxicity to L. minor,[1],non-toxic
same,inhibition at 100 µg/mL,[2]; [11],35%
same,mortality at 70 µg/mL,[3]; [12],8%
same,inhibition at 100 µg/mL,[4]; [9],0%
